# Measurements taken from PubChem BioAssay AID1963853 (Molecular Pharmacology Branch, DTP, NCI, 2024).
# “And” between values parts separate entries of the source, which are not always exact repeats. Equal entries are not always repeated.
# System: 266295-075-R-J1-PDC spheroid viability
# Assay: Anticancer human tumor 266295-075-R-J1-PDC patient-derived head and neck squamous carcinoma cell line growth inhibition [POLQ]
# Details: spheroids with HUVEC and MSC; for viability, T/C: stronger effect = lower value
# Procedure: Multicellular complex tumor spheroid response to Polymerase (POL) inhibitors (novobiocin, ART-558, RP6685) in combination with a variety of drugs and investigational agents in selected tumor cell lines
# The POL inhibitors (novobiocin, ART-558, and RP6685) were evaluated both individually and in combination with standard of care and investigational anticancer small molecules within a complex spheroid model of solid tumors. . Complex spheroids include a stromal component modeled by human endothelial cells (HUVEC) and fibroblasts modeled by human mesenchymal stem cells (MSCs). The concentration ranges selected for each drug and investigational agent were based upon clinically achievable concentrations if the clinical Cmax of the agent was known.
# Compounds. The drugs and investigational agents: novobiocin (NSC847541), ART-558 (NSC835418), RP-6685 (NSC848927), peposertib (NSC802822), ceralasertib (NSC780249), elimusertib (NSC800525), camonsertib (NSC841442), AZD-1390 (NSC803789), olaparib (NSC753686), talazoparib (NSC767125), rucaparib (NSC756644), sotorasib (NSC818433), MRTX-1133 (NSC836407), SN-38 (NSC673596), topotecan (NSC609699), epotoside (NSC141540), doxorubicin (NSC123127), gemcitabine (NSC613327), 5-fluorouracil (NSC19893), paclitaxel (NSC125973), vemurafenib (NSC761431), MSA-2 (NSC828583), SN-011 (NSC837082), adavosertib (NSC754352), prexasertib (NSC758257), carboplatin (NSC241240) and oxaliplatin (NSC266046), were obtained from the National Cancer Institute (NCI) Developmental Therapeutics Program Chemical Repository (21). The FDA-approved anticancer drug set is available from the Developmental Therapeutics Program at https://dtp.cancer.gov/organization/dscb/obtaining/. […] The stock solutions were prepared in dimethyl sulfoxide (DMSO, Sigma-Aldrich, St. Louis, MO, cat. D2650), except for the platinum compounds which were prepared in saline (Quality Biological, Gaithersburg, MD, cat. 114-055-101), at 800-fold the tested concentration and stored at -70 degrees C prior to their use. All drugs and investigational agents were tested over a range starting from a high concentration at or near the clinical Cmax and decreasing in half-log increments. If the clinical Cmax for an agent had not been determined, the highest concentration tested was 10 microM, except for SN-38, which was tested at a high concentration of 1 microM.
# Cell Culture. All cells were maintained in an incubator at 37 degrees C and 5% CO2 with 95% humidity. The PDC lines were cultured according to standard operating procedures established by the NCI PDMR (https://pdmr.cancer.gov). Table 3 of the manuscript, lists the cell lines along with the number of the three cell types plated to form the mct-spheroids and media for tumor cell growth. After thawing, all PDC lines, except 997537-175-T-J1-PDC and 415267-285-R-J2-PDC, were cultured in Matrigel-coated flasks prepared with a working solution of 1X Ham's F-12 nutrient mix, without supplementation (Thermo Fisher Scientific, cat. 11765054), 100 U/mL penicillin-streptomycin (Thermo Fisher Scientific, cat. 15140122), and 2.5% Matrigel (Corning Inc., Corning, NY, cat. 354248) for the first three passages. The two PDC lines 997537-175-T-J1-PDC and 415267-285-R-J2-PDC were cultured on uncoated flasks. The 857933-349-R-J2-PDC line was cultured in 6C/Colon 1B media containing advanced DMEM/F-12 (Thermo Fisher Scientific, cat. 12634028), 10 mM HEPES (Thermo Fisher Scientific, cat. 15630080), 1X GlutaMAX supplement (Thermo Fisher Scientific, cat. 35050061), 0.1 mg/mL primocin (InvivoGen, San Diego, CA, cat. ant-pm-2), 10% defined fetal bovine serum, heat inactivated (HyClone Laboratories Inc., Logan, UT, cat. SH30070.03HI), 50% L-WRN conditioned media (ATCC, cat. CRL-3276), 1.25 mM N-Acetyl-L-cysteine (Sigma-Aldrich, cat. A9165), 10 mM nicotinamide (Sigma-Aldrich, cat. N0636), 1X B-27 supplement (Thermo Fisher Scientific, cat. 17504044), 1X N-2 supplement (Thermo Fisher Scientific, cat. […]
# 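Note: spheroids exposed to compounds for seven days before readout.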
smiles,measurement,setting,value
CNCc1ccc(-c2[nH]c3cc(F)cc4c3c2CCNC4=O)cc1,"viability, T/C",compound 0.0316 µM,105% and 77.3% and 89.9%
same,"viability, T/C",compound 0.1 µM,102% and 92.1% and 96.7%
same,"viability, T/C",compound 0.316 µM,107% and 102% and 87.6%
same,"viability, T/C",compound 1 µM,91.4% and 94% and 99.2%
same,"viability, T/C",compound 3.16 µM,110% and 105% and 106%
same,"viability, T/C",compound 10 µM,91.8% and 123% and 105%
same,IC50,curve of compound,> 10 µM
COc1cccc2c1C(=O)c1c(O)c3c(c(O)c1C2=O)CC(O)(C(=O)CO)CC3OC1CC(N)C(O)C(C)O1 (stereo not given),"viability, T/C",compound 0.0316 µM,75.4% and 85.8% and 98.2%
same,"viability, T/C",compound 0.1 µM,77% and 122% and 101%
same,"viability, T/C",compound 0.316 µM,67.3% and 74% and 72.5%
same,"viability, T/C",compound 1 µM,55.9% and 77.4% and 82.8%
same,"viability, T/C",compound 3.16 µM,47.4% and 71.8% and 63.5%
same,"viability, T/C",compound 10 µM,1.55% and 2.37% and 2.7%
same,IC50,curve of compound,2 µM and 4.15 µM and 3.85 µM
COc1cccc(OCCCN)c1-c1cc(Nc2cnc(C#N)cn2)n[nH]1,"viability, T/C",compound 0.00316 µM,109% and 97% and 97.8%
same,"viability, T/C",compound 0.01 µM,88.7% and 92.5% and 82.9%
same,"viability, T/C",compound 0.0316 µM,70.5% and 72.5% and 94.9%
same,"viability, T/C",compound 0.1 µM,77.6% and 81.7% and 73.8%
same,"viability, T/C",compound 0.316 µM,73.2% and 70% and 74.8%
same,"viability, T/C",compound 1 µM,85% and 73.7% and 71.7%
same,IC50,curve of compound,> 1 µM
CCc1cc2c(N3CCc4c(cc(Cn5ccnc5)cc4-c4cn(C)nc4C(F)(F)F)C3=O)ccnc2c(OC)n1 + COC1C(OC(N)=O)C(O)C(Oc2ccc3c(O)c(NC(=O)c4ccc(O)c(CC=C(C)C)c4)c(=O)oc3c2C)OC1(C)C,IC50,"curve of first compound, second compound 0.0316 µM",> 10 µM
same,IC50,"curve of first compound, second compound 0.1 µM",> 10 µM
same,IC50,"curve of first compound, second compound 0.316 µM",> 10 µM
same,IC50,"curve of first compound, second compound 1 µM",> 10 µM
same,IC50,"curve of first compound, second compound 3.16 µM",> 10 µM
same,IC50,"curve of first compound, second compound 10 µM",> 10 µM
same,"viability, T/C","second compound 0.0316 µM, first compound 0.0316 µM",88.9%
same,"viability, T/C","second compound 0.0316 µM, first compound 0.1 µM",93%
same,"viability, T/C","second compound 0.0316 µM, first compound 0.316 µM",119%
same,"viability, T/C","second compound 0.0316 µM, first compound 1 µM",104%
same,"viability, T/C","second compound 0.0316 µM, first compound 3.16 µM",144%
same,"viability, T/C","second compound 0.0316 µM, first compound 10 µM",132%
same,"viability, T/C","second compound 0.1 µM, first compound 0.0316 µM",117%
same,"viability, T/C","second compound 0.1 µM, first compound 0.1 µM",96.8%
same,"viability, T/C","second compound 0.1 µM, first compound 0.316 µM",127%
same,"viability, T/C","second compound 0.1 µM, first compound 1 µM",107%
same,"viability, T/C","second compound 0.1 µM, first compound 3.16 µM",114%
same,"viability, T/C","second compound 0.1 µM, first compound 10 µM",132%
same,"viability, T/C","second compound 0.316 µM, first compound 0.0316 µM",94.8%
same,"viability, T/C","second compound 0.316 µM, first compound 0.1 µM",96.7%
same,"viability, T/C","second compound 0.316 µM, first compound 0.316 µM",95%
same,"viability, T/C","second compound 0.316 µM, first compound 1 µM",129%
same,"viability, T/C","second compound 0.316 µM, first compound 3.16 µM",120%
same,"viability, T/C","second compound 0.316 µM, first compound 10 µM",115%
same,"viability, T/C","second compound 1 µM, first compound 0.0316 µM",95.3%
same,"viability, T/C","second compound 1 µM, first compound 0.1 µM",80.9%
same,"viability, T/C","second compound 1 µM, first compound 0.316 µM",94%
same,"viability, T/C","second compound 1 µM, first compound 1 µM",102%
same,"viability, T/C","second compound 1 µM, first compound 3.16 µM",129%
same,"viability, T/C","second compound 1 µM, first compound 10 µM",127%
same,"viability, T/C","second compound 3.16 µM, first compound 0.0316 µM",100%
same,"viability, T/C","second compound 3.16 µM, first compound 0.1 µM",101%
same,"viability, T/C","second compound 3.16 µM, first compound 0.316 µM",104%
same,"viability, T/C","second compound 3.16 µM, first compound 1 µM",117%
same,"viability, T/C","second compound 3.16 µM, first compound 3.16 µM",159%
same,"viability, T/C","second compound 3.16 µM, first compound 10 µM",146%
same,"viability, T/C","second compound 10 µM, first compound 0.0316 µM",90.2%
same,"viability, T/C","second compound 10 µM, first compound 0.1 µM",87.7%
same,"viability, T/C","second compound 10 µM, first compound 0.316 µM",111%
same,"viability, T/C","second compound 10 µM, first compound 1 µM",117%
same,"viability, T/C","second compound 10 µM, first compound 3.16 µM",145%
same,"viability, T/C","second compound 10 µM, first compound 10 µM",135%
CCc1cc2c(N3CCc4c(cc(Cn5ccnc5)cc4-c4cn(C)nc4C(F)(F)F)C3=O)ccnc2c(OC)n1,"viability, T/C",compound 0.0316 µM,90% and 97.3% and 94%
same,"viability, T/C",compound 0.1 µM,86.8% and 96.2% and 103%
same,"viability, T/C",compound 0.316 µM,93.4% and 103% and 122%
same,"viability, T/C",compound 1 µM,106% (2×) and 117%
same,"viability, T/C",compound 3.16 µM,125% and 145% and 137%
same,"viability, T/C",compound 10 µM,126% and 117% and 140%
same,IC50,curve of compound,> 10 µM
